The record followed here is US12578343B2, “Selective ACKR3 modulators and uses thereof” (Luxembourg Institute of Health (LIH), priority 2019, dated 2026).

Assay [1] concerns rat locus coeruleus neurons. It counts as cell-based. On the procedure:
1.9. Ex Vivo Rat Neuron Depolarization
Adult male Wistar rats (6 to 8-week old) were housed at room temperature in groups of three or four with a 12:12 hour light-dark cycle. All animals had access to ad libitum food and water. All procedures were carried out in accordance with guidelines of the European Communities Council Directive of 24 Nov. 1986 (86609EE) and were accepted by the Ethics Committee for Animal Use of the University of Liège (protocol 2061). All efforts were made to minimize animal suffering.
1.9.2. Brain Explant Preparation and Recording Procedures
Rats were anaesthetized with chloral hydrate (400 mg/kg, i.p.) and placed under a cap with oxygenated air (95% O2, 5% CO2) two minutes prior to decapitation. After decapitation, the brain was rapidly removed and placed in ice cold (˜2° C.) oxygenated artificial cerebrospinal fluid (aCSF) of the following composition: NaCl 130 mM, KCl 3.5 mM, NaH2PO4 1.25 mM, NaHCO3 24 mM, Glucose 10 mM, CaCl2 2 mM, MgSO4 1.25 mM. A block of tissue containing the pons was placed in a vibrating blade microtome (Vibratome 1000 Plus, Sectioning System) and a slice containing the locus coeruleus (LC) immediately rostral to the fourth ventricle and the VIIth nerve, used as anatomical landmarks, was cut coronally (400 μm thick). The slice was placed on a nylon mesh in a recording chamber (volume: 0.5 ml) where it was superfused by oxygenated aCSF (34.0±0.5° C.) at a rate of 2 to 3 ml/min. The LC was recognized as a translucent region during transillumination, lateral to the fourth ventricle. All experiments were performed in oxygenated aCSF with synaptic blockers consisting of 10 μM CNQX, 10 μM SR95531, 1 μM MK801, and 1 μM CGP55845, which block AMPA/Kainate, GABAA, NMDA, and GABAB receptors, respectively. This ensured that the spontaneous firing of the neurons was only due to its endogenous pace making.
Extracellular single cell recordings of LC neurons were performed with glass microelectrodes filled with aCSF (resistance 10-20 MΩ). Signals were passed through an impedance adapter and were amplified 1000× using a home-made amplifier. […] Data were collected and analysed with the Spike 2 software (Cambridge Electronic Design). […] The duration of the extracellularly recorded action potentials was 2-3 ms. Drugs and peptides were applied for at least 10 minutes.
The mean firing rate over 1 minute was calculated during each condition. Next, the inhibition of firing by the peptides and drugs used (LIH383 and dynorphin) was quantified as the % of total inhibition. For this purpose, present inventors considered the mean firing rate during the last minute of each condition (control, LIH383 alone, LIH383 plus a given concentration of dynorphin).

In assay [2] the target is T1, ACKR3 (Homo sapiens, UniProt P25106). As to the kind of experiment: ACKR3-mediated depletion of extracellular dynorphin A monitored by its ability to activate KOR (U87-ACKR3 cells). Format: cell-based. Set-up: expressed in transfected cells; for the receptor comparison in the uptake assay, transient pcDNA3.1). The following applies: for reversal of the ACKR3-mediated impairment of dynorphin A potency to activate KOR by pre-treatment: pre-treatment of ACKR3-expressing cells, saturating concentration. On the procedure:
(§1) In brief, 1.2×10^6 U87 cells were plated in 10 cm-culture dishes and 48 hours later co-transfected with pNBe vectors encoding GPCRs C-terminally tagged to SmBiT and human β-arrestin-1 or -2 or mini G proteins (mG, engineered GTPase domains of Gα subunits,) N-terminally fused to LgBiT. 48 hours post-transfection cells were harvested, incubated 25 minutes at 37° C. with Nano-Glo Live Cell substrate diluted 200-fold and distributed into white 96-well plates (5×10^4 cells per well). Ligand-induced, β-arrestin and mG recruitment to GPCRs was evaluated with a Mithras LB940 luminometer (Berthold Technologies) for 20 minutes. For concentration-response curves, the signal recorded with a saturating concentration of full agonist for each receptor was set as 100%.
Target sequence in this assay (P25106 whole entry, the tested form may be a part): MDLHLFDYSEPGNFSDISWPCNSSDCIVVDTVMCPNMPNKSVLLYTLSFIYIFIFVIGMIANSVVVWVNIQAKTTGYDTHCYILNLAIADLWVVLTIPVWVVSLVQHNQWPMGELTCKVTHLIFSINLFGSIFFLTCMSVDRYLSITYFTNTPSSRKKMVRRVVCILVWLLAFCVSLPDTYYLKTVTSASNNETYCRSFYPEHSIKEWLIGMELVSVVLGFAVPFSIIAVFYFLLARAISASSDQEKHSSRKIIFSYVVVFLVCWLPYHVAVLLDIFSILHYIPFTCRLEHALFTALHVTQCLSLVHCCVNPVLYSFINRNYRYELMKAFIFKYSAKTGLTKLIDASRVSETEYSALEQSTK

The target in assay [3] is T1, ACKR3. Format: cell-based. On the set-up: expressed in transfected cells; host or cells: U87 cells, transient co-transfection of pNBe vectors.
Target sequence in this assay (P25106 whole entry, the tested form may be a part): as above
Target sequence in this assay (P49407 whole entry partner, the tested form may be a part): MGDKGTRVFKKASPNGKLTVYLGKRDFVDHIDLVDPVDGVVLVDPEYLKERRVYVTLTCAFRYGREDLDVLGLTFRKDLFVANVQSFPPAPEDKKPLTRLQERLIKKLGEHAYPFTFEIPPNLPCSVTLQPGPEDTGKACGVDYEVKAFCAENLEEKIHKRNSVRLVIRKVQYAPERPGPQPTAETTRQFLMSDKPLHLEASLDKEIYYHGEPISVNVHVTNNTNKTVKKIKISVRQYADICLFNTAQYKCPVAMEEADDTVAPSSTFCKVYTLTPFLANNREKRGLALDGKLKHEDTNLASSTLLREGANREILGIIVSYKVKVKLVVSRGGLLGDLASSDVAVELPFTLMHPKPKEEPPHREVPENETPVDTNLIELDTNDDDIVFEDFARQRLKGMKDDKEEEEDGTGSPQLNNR
The test system of assay [4] is ACKR3. Briefly: ACKR3 | EC50 (nM). An excerpt:
Table printed on a drawing sheet, FIG. 3 (continued) F
Head of the field: ACKR3 | EC50 (nM)
Footnotes: *NH2-substituted at C-terminus
The patent's description of the figure: FIG. 3. Structure-activity relationship analysis of adrenorphin variants on ACKR3 and classical opioid receptors. (A) Comparison of the impact of substitutions, truncations, extensions, D-amino acid replacement or dimerization on the agonist activity of adrenorphin towards ACKR3, MOR, DOR, KOR and NOP. The agonist activity or each variant was evaluated in β-arrestin-1 recruitment assay in U87 cells and expressed as fold change over the activity of wild-type adrenorphin. (B-E) Comparison of potency and efficacy of adrenorphin (B) and its variants bearing mutations Y1F (C), M5L (D) and R6A (E) to induce β-arrestin-1 recruitment to ACKR3 and the opioid receptors KOR, MOR, DOR and NOP in U87 cells. “˜” indicates a similar impact of the modification on the potency of the peptide towards ACKR3 and the indicated opioid receptor. Results represent the mean±S.E.M. (n ? 3) (F) Comparison of the potencies of peptide variants combining mutations Y1F with other modifications (mutations and/or extension) to induce β-arrestin-1 recruitment to ACKR3. Modified amino acids with respect to the mother peptide (Y1F adrenorphin […]) are underlined and in bold.
First copying reader's note: Bold underlined residues in the sequences mark modifications relative to the mother peptide; the pEC50 cells include the SEM after ±.
Where the first naming reader finds the target: head: ACKR3

For a further assay, the target named is T2, MOR (Homo sapiens, UniProt P35372).
T2 construct: expressed in transfected cells; host or cells: U87 cells, transient co-transfection of pNBe vectors
Format: cell-based. On the procedure: as §1

Another assay concerns the target T3, DOR (Homo sapiens, UniProt P41143).
T3 construct: expressed in transfected cells; host or cells: U87 cells, transient co-transfection of pNBe vectors
Briefly: β-arrestin-1 recruitment to DOR (NanoBiT, U87 cells). It counts as cell-based. On the procedure:
as §1

The target of another assay is KOR (Homo sapiens, UniProt P41145). As to the kind of experiment: β-arrestin-1 recruitment to KOR (NanoBiT, U87 cells). Format: cell-based. On the set-up: expressed in transfected cells; host or cells: U87 cells, transient co-transfection of pNBe vectors. On the procedure:
as §1

The subject of a further assay is smNPCs. Briefly: Uptake of labelled dynorphin A (1-13) by smNPCs, imaging flow cytometry. It counts as cell-based, human. The following applies: 3 μM, 15 minutes pre-treatment. On the procedure:
U87 cells derived from human brain glioblastoma were obtained through the NIH AIDS Reagent Program from Dr. Deng and Dr. Littman. U87 stably expressing ACKR3 and CXCR4 were generated as previously described in Szpakowska, M. et al. Different contributions of chemokine N-terminal features attest to a different ligand binding mode and a bias towards activation of ACKR3/CXCR7 compared with CXCR4 and CXCR3. Br J Pharmacol 175, 1419-1438 (2018). U87 cells were grown in Dulbecco's modified Eagle medium (DMEM) supplemented with 15% foetal bovine serum and penicillin/streptomycin (100 Units/ml and 100 μg/ml). U87-ACKR3 and U87-CXCR4 were maintained under puromycin (1 μg/ml) selective pressure. smNPCs (small molecule neural precursor cells) derived from a healthy donor (C1-1) whose informed consent was obtained, were grown on Geltrex™-coated surface in N2B27 medium supplemented with 0.5 μM Purmorphamine, 3 μM CHIR 99021 and 150 μM ascorbic acid. N2B27 medium consisted of DMEM/F12 and NeuroBasal medium 50:50 with 0.5% N2 supplement, 1% B27 supplement lacking vitamin A, 1% GlutaMAX and 1% penicilin/streptomycin. Medium was renewed every other day.
Cells were distributed into 96-well plates (2×10^5 cells/well in Opti-MEM for U87 and U87-ACKR3 and 3×10^5 cells/well in N2B27 medium for smNPCs). […] For comparison of labelled opioid peptide-uptake by ACKR3 or classical opioid receptors, 1.2×10^6 U87 cells were seeded in 10-cm dishes and transfected 48 hours later with 4 μg pcDNA3.1 plasmid encoding ACKR3 or KOR, MOR or NOP. 48 hours post transfection, cells were harvested and treated as described above. Dead cells were excluded using Zombie NIR or Zombie Green viability dye (BioLegend) for FAM-labelled peptides and Cy5-labelled peptides, respectively. Images of 1×10^4 in-focus, living single cells were acquired with an ImageStream MKII imaging flow cytometer (Amnis) using 40× magnification (60× magnification for smNPCs). Samples were analysed using Ideas6.2 software. The number of spots per cell was determined using a mask-based software wizard.

What is called EC50 is the midpoint of the concentration-response curve.

T3 sequence (P41143 whole entry): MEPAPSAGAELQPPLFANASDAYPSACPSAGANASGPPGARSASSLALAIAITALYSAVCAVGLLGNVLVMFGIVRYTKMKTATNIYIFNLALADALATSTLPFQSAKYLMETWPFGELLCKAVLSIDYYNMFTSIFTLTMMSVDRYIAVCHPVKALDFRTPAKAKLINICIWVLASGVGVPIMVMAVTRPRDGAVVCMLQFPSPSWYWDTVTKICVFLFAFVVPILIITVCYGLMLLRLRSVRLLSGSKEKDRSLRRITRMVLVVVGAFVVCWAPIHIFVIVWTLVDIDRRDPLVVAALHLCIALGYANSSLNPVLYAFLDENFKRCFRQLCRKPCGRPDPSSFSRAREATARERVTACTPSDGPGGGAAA
T2 sequence (P35372 whole entry): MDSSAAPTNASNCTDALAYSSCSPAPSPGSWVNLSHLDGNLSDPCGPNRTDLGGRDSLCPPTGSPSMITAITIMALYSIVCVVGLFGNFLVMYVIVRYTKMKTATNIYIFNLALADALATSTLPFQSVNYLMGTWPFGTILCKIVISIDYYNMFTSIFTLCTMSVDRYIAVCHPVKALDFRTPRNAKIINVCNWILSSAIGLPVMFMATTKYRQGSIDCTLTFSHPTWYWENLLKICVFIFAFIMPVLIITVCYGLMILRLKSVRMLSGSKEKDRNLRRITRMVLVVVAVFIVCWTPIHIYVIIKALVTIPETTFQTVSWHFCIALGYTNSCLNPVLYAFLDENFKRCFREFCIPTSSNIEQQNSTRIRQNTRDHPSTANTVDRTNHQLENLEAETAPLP
KOR, sequence (P41145 whole entry): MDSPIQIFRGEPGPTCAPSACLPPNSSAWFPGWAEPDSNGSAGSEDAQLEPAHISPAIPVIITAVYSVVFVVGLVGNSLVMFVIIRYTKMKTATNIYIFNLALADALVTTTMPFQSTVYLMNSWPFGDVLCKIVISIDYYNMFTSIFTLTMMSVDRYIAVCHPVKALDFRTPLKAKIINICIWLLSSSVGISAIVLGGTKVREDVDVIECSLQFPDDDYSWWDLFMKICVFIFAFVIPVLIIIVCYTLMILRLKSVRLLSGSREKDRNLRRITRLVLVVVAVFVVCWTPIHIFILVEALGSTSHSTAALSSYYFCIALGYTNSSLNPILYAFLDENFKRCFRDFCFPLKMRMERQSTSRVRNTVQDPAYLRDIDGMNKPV

With `CC[C@H](C)[C@H](NC(=O)[C@H](CCCNC(=N)N)NC(=O)[C@H](CCCNC(=N)N)NC(=O)[C@H](CC(C)C)NC(=O)[C@H](Cc1ccccc1)NC(=O)CNC(=O)CNC(=O)[C@@H](N)Cc1ccc(O)cc1)C(=O)N[C@@H](CCCNC(=N)N)C(=O)N1CCC[C@H]1C(=O)N[C@@H](CCCCN)C(=O)N[C@@H](CC(C)C)C(=O)N[C@@H](CCCCN)C(=O)N[C@@H](Cc1c[nH]c2ccccc12)C(=O)N[C@@H](CC(=O)O)C(=O)N[C@@H](CC(N)=O)C(=O)N[C@@H](CCC(N)=O)C(=O)O` [dynorphin A], the EC50 in assay [1] (LIH383 3 μM group, read-out: EC50 of dynorphin for inhibition of firing, one aberrant individual value that was omitted) turned out to be 559 nM. Besides, the “concentration giving total inhibition of neuron depolarization (neuronal firing)” value in assay [1] (explants of rat locus coeruleus) was determined as 1 µM. Also, at ACKR3 [2], the “apparent potency to activate KOR in the presence of ACKR3-expressing cells” value is “impaired”.

On to `C=CCN1CC[C@]23c4c5ccc(O)c4O[C@H]2C(=O)CC[C@@]3(O)[C@H]1C5` [naloxone], for which the “effect of dynorphin A (1 μM) on neuronal firing rate after naloxone pretreatment” value in assay [1] is reported as “did not lead to a change in neuronal firing rate”. As to `Oc1ccc2c3c1O[C@H]1c4[nH]c5c(c4C[C@@]4(O)[C@@H](C2)N(CC2CC2)CC[C@]314)C[C@@]1(O)[C@H]2Cc3ccc(O)c4c3[C@@]1(CCN2CC1CC1)[C@H]5O4` [nor-binaltrophimine, reference compound], the “activity of opioid modulators towards ACKR3 in β-arrestin recruitment” value on ACKR3 [3] (10 μM, 1 μM and 100 nM) is given as “Weak activation of ACKR3”. As for “CXCL10: irrelevant (negative control) chemokine”, the “reversal of the ACKR3-mediated impairment of dynorphin A potency to activate KOR by pre-treatment” value in the assay with ACKR3 [2] is “not”. For the compound “CXCL11: C—X—C motif chemokine 11, endogenous ACKR3 chemokine ligand”, the EC50 with ACKR3 [3] (U87 cells, read-out: EC50 in inducing β-arrestin recruitment to ACKR3) is 2.2 nM. In turn, FGGFMRRF (peptide 44) [SEQ ID NO: 69] yielded an EC50 in the assay on ACKR3 [4] of 11 nM.

For FGGFMRRFR (peptide 45) [SEQ ID NO: 70], the 50% effective concentration (EC50) in the assay on ACKR3 [4] is 16.3 nM. For the compound FGGFMRRKR (peptide 2) [SEQ ID NO: 4], in the assay on ACKR3 [4], the concentration for a half-maximal effect (EC50) amounted to 1.11 nM. For FGGFMRRV [adrenorphin Y1F variant], the “reduction of potency towards MOR as compared to WT adrenorphin” value in the assay with MOR is listed as “over 100 fold”. Besides, the “reduction of potency towards DOR as compared to WT adrenorphin” value with DOR is “over 100 fold”. The “impact of adrenorphin modification on activity towards ACKR3 (versus adrenorphin), in words” value with ACKR3 [3] (β-arrestin-1 recruitment, U87 cells) is “tenfold improvement in potency”. Moreover, in the assay with KOR, the “reduction of potency towards KOR as compared to WT adrenorphin” value is given as “over 100 fold”. As for “FGGFMRRV* (mother peptide) [compound 35]”, the EC50 with ACKR3 [4] was 9.33 nM.

In turn, FGGFMRRVR (peptide 3) [SEQ ID NO: 5] returned an EC50 with ACKR3 [4] of 3.97 nM. Still for that read-out and setting: then FGGWMRRF (peptide 47) [SEQ ID NO: 72], with 19.1 nM. For the compound FGGWMRRFR (peptide 46) [SEQ ID NO: 71], a half-maximal response in the assay with ACKR3 [4] (EC50) required 19.1 nM. On the same count and under the same terms, under FGGWMRRK (peptide 4) [SEQ ID NO: 6] stands 4.03 nM; under FGGWMRRKR (peptide 6) [SEQ ID NO: 11], 7.34 nM.

In the assay with ACKR3 [4], FGGWMRRV (peptide 43) [SEQ ID NO: 68] returned an EC50 of 10.5 nM. In turn, FGGWMRRVR (peptide 5) [SEQ ID NO: 10] gave a concentration for a half-maximal effect (EC50) in the assay on ACKR3 [4] of 5.42 nM. For “MRRKFGGF [LIH383 ctrl, control peptide consisting of the 8 amino acids building LIH383 in a different arrangement, reference compound]”, the “effect of pretreatment on uptake of labelled dynorphin A (1-13) by smNPCs” value in the assay with smNPCs is on record as “not”. Further, the “reversal of the ACKR3-mediated impairment of dynorphin A potency to activate KOR by pre-treatment” value with ACKR3 [2] is on record as “not”.

YGGFMRRV* (adrenorphin) [compound 32] yielded a concentration for a half-maximal effect (EC50) with ACKR3 [4] of 109 nM.

For the compound “dynorphin 2-13: endogenous truncated dynorphin variant [reference compound]”, the “β-arrestin recruitment to ACKR3: agonist activity/potency in words” value with ACKR3 [3] (U87 cells) is “activated”. On to “dynorphin 2-17: endogenous truncated dynorphin variant (GGFLRRIRPKLKWDNQ; listed as Homo sapiens) [reference compound]”, for which, in the assay with ACKR3 [3] (U87 cells), the “β-arrestin recruitment to ACKR3: agonist activity/potency in words” value is reported as “activated”.
